Experimental findings from patent US10479780B2, “Aminopyrazole derivatives” (Chugai Seiyaku Kabushiki Kaisha, priority 2015, dated 2019) are described below.

Common to all, as to format: biochemical
One assay deals with T1, human Src enzyme (Homo sapiens, UniProt P12931).
T1 construct: purchased Carna Biosciences, Inc. 08-173
Nature of the assay: Src enzyme inhibitory activity (time-resolved fluorometry, biotinylated peptide phosphorylation). The settings on record: read-out: SRC_IC50. In outline: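 Compounds were tested for blocking tyrosine phosphorylation of a biotinylated peptide substrate by recombinant human Src. Phosphorylated product was quantified by time-resolved fluorometry using europium cryptate and XL665 conjugates, and IC50 was calculated against the compound-free control.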

For a further assay, the target named is T2, human Lck enzyme (Homo sapiens, UniProt P06239).
T2 construct: purchased Carna Biosciences, Inc. 08-170
T2 sequence (P06239 whole entry): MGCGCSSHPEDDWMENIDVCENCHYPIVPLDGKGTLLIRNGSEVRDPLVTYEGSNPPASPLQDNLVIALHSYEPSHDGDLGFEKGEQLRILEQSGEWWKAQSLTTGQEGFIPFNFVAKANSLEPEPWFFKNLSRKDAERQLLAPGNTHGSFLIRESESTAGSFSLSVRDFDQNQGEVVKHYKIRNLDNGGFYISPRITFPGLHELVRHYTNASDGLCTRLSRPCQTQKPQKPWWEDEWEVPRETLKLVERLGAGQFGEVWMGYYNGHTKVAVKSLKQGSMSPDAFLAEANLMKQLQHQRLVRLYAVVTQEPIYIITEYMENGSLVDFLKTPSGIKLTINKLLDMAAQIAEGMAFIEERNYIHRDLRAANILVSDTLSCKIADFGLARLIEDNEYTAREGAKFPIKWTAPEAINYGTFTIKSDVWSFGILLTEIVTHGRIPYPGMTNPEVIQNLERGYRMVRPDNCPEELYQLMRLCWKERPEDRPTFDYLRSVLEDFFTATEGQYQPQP
As to the kind of experiment: Lck enzyme inhibitory activity (time-resolved fluorometry, biotinylated peptide phosphorylation). The settings on record: read-out: LCK_IC50. In short, it runs like this: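 Readout pairs a europium cryptate-labelled anti-phosphotyrosine antibody with XL665-streptavidin, measured by time-resolved fluorescence. IC50 derived from percent inhibition against untreated controls.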

In the next assay the target is T3, human Yes1 enzyme (Homo sapiens, UniProt P07947).
T3 construct: made in house
T3 sequence (P07947 whole entry): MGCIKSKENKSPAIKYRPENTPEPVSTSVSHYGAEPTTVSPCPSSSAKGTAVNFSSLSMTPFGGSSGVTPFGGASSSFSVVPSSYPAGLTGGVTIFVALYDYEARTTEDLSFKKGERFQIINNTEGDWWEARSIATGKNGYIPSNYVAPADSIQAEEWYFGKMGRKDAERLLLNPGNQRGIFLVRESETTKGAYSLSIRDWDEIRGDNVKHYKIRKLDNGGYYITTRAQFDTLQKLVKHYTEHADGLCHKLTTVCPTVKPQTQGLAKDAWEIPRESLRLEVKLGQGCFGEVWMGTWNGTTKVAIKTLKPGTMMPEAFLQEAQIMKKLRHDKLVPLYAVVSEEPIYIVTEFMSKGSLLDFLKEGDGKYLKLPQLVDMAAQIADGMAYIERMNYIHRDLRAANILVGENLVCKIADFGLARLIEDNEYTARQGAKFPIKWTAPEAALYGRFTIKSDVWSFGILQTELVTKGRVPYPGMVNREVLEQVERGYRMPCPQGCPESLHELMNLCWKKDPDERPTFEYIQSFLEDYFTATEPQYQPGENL
Nature of the assay: Yes1 enzyme inhibitory activity (time-resolved fluorometry, biotinylated peptide phosphorylation). The conditions noted are these: read-out: YES_IC50. In outline:
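Inhibition was expressed against a compound-free control to give IC50, using TR-FRET read-out (Eu-cryptate anti-pTyr antibody, streptavidin-XL665).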

Setting [1] is: biotinylated peptide phosphorylation.

Structures are written as SMILES. Like-named read-outs stand apart in the source and are kept apart here.

T1 sequence (P12931 whole entry): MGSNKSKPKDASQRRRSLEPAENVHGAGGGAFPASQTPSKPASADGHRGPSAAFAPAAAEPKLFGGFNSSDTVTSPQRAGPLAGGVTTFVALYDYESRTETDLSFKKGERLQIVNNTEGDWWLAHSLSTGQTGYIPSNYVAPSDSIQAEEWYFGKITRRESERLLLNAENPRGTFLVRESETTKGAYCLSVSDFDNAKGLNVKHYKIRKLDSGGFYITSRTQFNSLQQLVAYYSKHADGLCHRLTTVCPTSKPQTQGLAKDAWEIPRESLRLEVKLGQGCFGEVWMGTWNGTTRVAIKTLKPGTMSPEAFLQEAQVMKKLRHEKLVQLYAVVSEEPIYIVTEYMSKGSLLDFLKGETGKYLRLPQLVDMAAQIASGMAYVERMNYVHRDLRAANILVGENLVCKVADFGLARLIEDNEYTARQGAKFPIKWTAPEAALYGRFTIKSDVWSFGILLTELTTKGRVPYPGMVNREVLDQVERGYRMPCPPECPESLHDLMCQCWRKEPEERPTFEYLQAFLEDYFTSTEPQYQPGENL

For `Cc1cc(Oc2ccccc2F)ccc1-n1ncc(C(=O)c2cc3cc(F)c(NS(=O)(=O)c4cccc(F)c4)cc3[nH]2)c1N` [Example 5-1-552, N-[2-[5-amino-1-[4-(2-fluorophenoxy)-2-methylphenyl]pyrazole-4-carbonyl]-5-fluoro-1H-indol-6-yl]-3-fluorobenzenesulfonamide], the IC50 on human Src enzyme (setting [1]) worked out at 830 nM; on human Lck enzyme (setting [1]), 130 nM; on human Yes1 enzyme (setting [1]) it was 5.4 nM.

`Cc1cc(Oc2ccccc2F)ccc1-n1ncc(C(=O)c2cc3cc(OC4CCN(C(C)C)CC4)c(Br)cc3[nH]2)c1N` [Example 5-1-146, [5-amino-1-[4-(2-fluorophenoxy)-2-methylphenyl]pyrazol-4-yl]-[6-bromo-5-(1-propan-2-ylpiperidin-4-yl)oxy-1H-indol-2-yl] methanone]: the IC50 on human Src enzyme stood at 2.2 nM; at human Lck enzyme it was 5.3 nM; on human Yes1 enzyme it was 0.27 nM.

`COc1cc2cc(C(=O)c3cnn(-c4cnc(Oc5ccccc5Cl)cc4C)c3N)[nH]c2cc1NS(C)(=O)=O` [Example 4-1-010, N-[2-[5-amino-1-[6-(2-chlorophenoxy)-4-methylpyridin-3-yl]pyrazole-4-carbonyl]-5-methoxy-1H-indol-6-yl]methanesulfonamide]: the results for the IC50 at human Src enzyme (setting [1]), on human Lck enzyme (setting [1]) and on human Yes1 enzyme (setting [1]) were 46 nM, 25 nM and 1.1 nM, respectively.

For `Cc1cc(Oc2cccc(F)c2F)ncc1-n1ncc(C(=O)c2cc3cc(F)c(NS(C)(=O)=O)cc3[nH]2)c1N` [Example 4-2-032, N-[2-[5-amino-1-[6-(2,3-difluorophenoxy)-4-methylpyridin-3-yl]pyrazole-4-carbonyl]-5-fluoro-1H-indol-6-yl]methanesulfonamide], the results for the IC50 on human Src enzyme (setting [1]), on human Lck enzyme (setting [1]) and at human Yes1 enzyme (setting [1]) were 92 nM, 27 nM and 3.5 nM, respectively.

In the case of `Cc1cc(Oc2ccccc2F)cc(F)c1-n1ncc(C(=O)c2cc3cc(OCC(F)F)c(NC4CCN(S(C)(=O)=O)CC4)cc3[nH]2)c1N` [Example 4-23-028, [5-amino-1-[2-fluoro-4-(2-fluorophenoxy)-6-methylphenyl]pyrazol-4-yl]-[5-(2,2-difluoroethoxy)-6-[(1-methylsulfonylpiperidin-4-yl)amino]-1H-indol-2-yl]methanone], the IC50 at human Src enzyme (setting [1]) came out at 70 nM; on human Lck enzyme (setting [1]), 41 nM; on human Yes1 enzyme (setting [1]) it was 20 nM.

On to `Cc1cc2cc(C(=O)c3cnn(-c4cnc(Oc5c(F)cccc5F)cc4C)c3N)[nH]c2cc1NS(=O)(=O)c1cccc(Cl)c1` [Example 5-1-557, N-[2-[5-amino-1-[6-(2,6-difluorophenoxy)-4-methylpyridin-3-yl]pyrazole-4-carbonyl]-5-methyl-1H-indol-6-yl]-3-chlorobenzenesulfonamide], for which the IC50 amounted to 1500 nM at human Src enzyme (setting [1]), 320 nM on human Lck enzyme (setting [1]) and 19 nM at human Yes1 enzyme (setting [1]).

`Cc1cc(Oc2ccccc2F)ncc1-n1ncc(C(=O)c2cc3cc(NS(C)(=O)=O)c(OCCN4CCOCC4)cc3[nH]2)c1N` [Example 4-2-129]: the values for the IC50 on human Src enzyme (setting [1]), on human Lck enzyme (setting [1]) and at human Yes1 enzyme (setting [1]) were 3.2 nM, 1.4 nM and 0.59 nM, respectively.

For the molecule `Cc1cc(Oc2ccccc2F)ccc1-n1ncc(C(=O)c2cc3cc(N4CCOCC4)c(N4CCOCC4)cc3[nH]2)c1N` [Example 5-1-094, [5-amino-1-[4-(2-fluorophenoxy)-2-methylphenyl]pyrazol-4-yl]-(5,6-dimorpholin-4-yl-1H-indol-2-yl)methanone], the IC50 at human Src enzyme was determined as 19 nM; at human Lck enzyme, 4.1 nM; at human Yes1 enzyme, 2.9 nM.

Consider `Cc1cc2cc(C(=O)c3cnn(-c4cnc(Oc5c(F)cccc5F)cc4C)c3N)[nH]c2cc1N1C(=O)NC2(CCOCC2)C1=O` [Example 5-1-342, 3-[2-[5-amino-1-[6-(2,6-difluorophenoxy)-4-methylpyridin-3-yl]pyrazole-4-carbonyl]-5-methyl-1H-indol-6-yl]-8-oxa-1,3-diazaspiro[4.5] decane-2,4-dione], for which the IC50 was 48 nM at human Src enzyme, 5.3 nM on human Lck enzyme and 1.7 nM at human Yes1 enzyme.

Take `Cc1cc(-n2ncc(C(=O)c3cc4cc(F)c(NS(C)(=O)=O)cc4[nH]3)c2N)ccc1Oc1ccccc1F` [Example 5-1-017, N-[2-[5-amino-1-[4-(2-fluorophenoxy)-3-methylphenyl]pyrazole-4-carbonyl]-5-fluoro-1H-indol-6-yl]methanesulfonamide]: the IC50 at human Src enzyme was determined as 2400 nM; at human Lck enzyme, 630 nM; on human Yes1 enzyme, 4.5 nM.

On to `CC(C)N1CCC(c2cc3[nH]c(C(=O)c4cnn(-c5ccc(Oc6cccc(F)c6F)cc5F)c4N)cc3cc2F)CC1` [Example 5-1-011, [5-amino-1-[4-(2,3-difluorophenoxy)-2-fluorophenyl]pyrazol-4-yl]-[5-fluoro-6-(1-propan-2-ylpiperidin-4-yl)-1H-indol-2-yl]methanone], for which the results for the IC50 at human Src enzyme, on human Lck enzyme and at human Yes1 enzyme were 14 nM, 2.6 nM and 0.86 nM, respectively.

With `Cc1cc(-n2ncc(C(=O)c3cc4cc(OC5CCN(C6CC6)CC5)c(Br)cc4[nH]3)c2N)ccc1Oc1ccccc1F` [Example 5-1-219, [5-amino-1-[4-(2-fluorophenoxy)-3-methylphenyl]pyrazol-4-yl]-[6-bromo-5-(1-cyclopropylpiperidin-4-yl)oxy-1H-indol-2-yl] methanone], the IC50 on human Src enzyme worked out at 460 nM; at human Lck enzyme, 83 nM; at human Yes1 enzyme, 1.3 nM.

`COc1cc2cc(C(=O)c3cnn(-c4c(C)cc(Oc5ccccc5F)cc4F)c3N)[nH]c2cc1NS(=O)(=O)CC(=O)NC(C)C` [Example 5-1-137, 2-[[2-[5-amino-1-[2-fluoro-4-(2-fluorophenoxy)-6-methylphenyl]pyrazole-4-carbonyl]-5-methoxy-1H-indol-6-yl]sulfamoyl]-N-propan-2-ylacetamide]: the IC50 on human Src enzyme was 41 nM; at human Lck enzyme it was 29 nM; on human Yes1 enzyme, 1.3 nM.

Consider `Cc1cc2cc(C(=O)c3cnn(-c4c(C)cc(Oc5ccccc5F)cc4F)c3N)[nH]c2cc1NS(C)(=O)=O` [Example 4-2-055, N-[2-[5-amino-1-[2-fluoro-4-(2-fluorophenoxy)-6-methylphenyl]pyrazole-4-carbonyl]-5-methyl-1H-indol-6-yl]methanesulfonamide], for which the IC50 came to 65 nM on human Src enzyme (setting [1]), 26 nM at human Lck enzyme (setting [1]) and 3 nM at human Yes1 enzyme (setting [1]).

`Cc1cc(Oc2c(F)cccc2F)ncc1-n1ncc(C(=O)c2cc3cc(F)c(N4CC5(CCOCC5)NS4(=O)=O)cc3[nH]2)c1N` [Example 5-1-400, [5-amino-1-[6-(2,6-difluorophenoxy)-4-methylpyridin-3-yl]pyrazol-4-yl]-[6-(2,2-dioxo-8-oxa-2λ6-thia-13-diazaspiro[4.5]decan-3-yl)-5-fluoro-1H-indol-2-yl]methanone]: the figures for the IC50 on human Src enzyme (setting [1]), on human Lck enzyme (setting [1]) and on human Yes1 enzyme (setting [1]) were 76 nM, 14 nM and 2.1 nM, respectively.

With `Cc1cc(Oc2ccccc2F)ncc1-n1ncc(C(=O)c2cc3cc(OC(F)F)c(N4C(=O)NC(C)(C)C4=O)cc3[nH]2)c1N` [Example 5-1-402, 3-[2-[5-amino-1-[6-(2-fluorophenoxy)-4-methylpyridin-3-yl]pyrazole-4-carbonyl]-5-(difluoromethoxy)-1H-indol-6-yl]-5,5-dimethylimidazolidine-2,4-dione], the figures for the IC50 at human Src enzyme (setting [1]), at human Lck enzyme (setting [1]) and at human Yes1 enzyme (setting [1]) were 63 nM, 8.2 nM and 1.8 nM, respectively.

In the case of `Cc1cc(Oc2ccccc2F)ncc1-n1ncc(C(=O)c2cc3cc(F)c(N4CCCS4(=O)=O)cc3[nH]2)c1N` [Example 4-9-001, {5-amino-1-[6-(2-fluorophenoxy)-4-methylpyridin-3-yl]pyrazol-4-yl}-[6-(1,1-dioxo-1,2-thiazolidin-2-yl)-5-fluoro-1H-indol-2-yl]methanone], the values for the IC50 at human Src enzyme (setting [1]), on human Lck enzyme (setting [1]) and on human Yes1 enzyme (setting [1]) were 13 nM, 2.5 nM and 0.46 nM, respectively.

Take `Cc1cc(Oc2ccccc2F)ccc1-n1ncc(C(=O)c2cc3cc(OC4CCN(C(C)C)CC4)c(N4CCOC4=O)cc3[nH]2)c1N` [Example 5-1-192, 3-[2-[5-amino-1-[4-(2-fluorophenoxy)-2-methylphenyl]pyrazole-4-carbonyl]-5-(1-propan-2-ylpiperidin-4-yl)oxy-1H-indol-6-yl]-1,3-oxazolidin-2-one]: the IC50 turned out to be 1.1 nM on human Src enzyme, 0.86 nM on human Lck enzyme and 0.29 nM on human Yes1 enzyme.

As for `Cc1cc(Oc2ccccc2F)ccc1-n1ncc(C(=O)c2cc3cc(O)c(NS(C)(=O)=O)cc3[nH]2)c1N` [Example 5-1-061, N-[2-[5-amino-1-[4-(2-fluorophenoxy)-2-methylphenyl]pyrazole-4-carbonyl]-5-hydroxy-1H-indol-6-yl]methanesulfonamide], the IC50 stood at 12 nM at human Src enzyme, 7 nM at human Lck enzyme and 0.96 nM on human Yes1 enzyme.

`Cc1cc2cc(C(=O)c3cnn(-c4cnc(Oc5ccccc5Cl)cc4C)c3N)[nH]c2cc1NS(=O)(=O)N1CCOCC1` [Example 4-2-110, N-[2-[5-amino-1-[6-(2-chlorophenoxy)-4-methylpyridin-3-yl]pyrazole-4-carbonyl]-5-methyl-1H-indol-6-yl]morpholine-4-sulfonamide]: the results for the IC50 on human Src enzyme (setting [1]), at human Lck enzyme (setting [1]) and at human Yes1 enzyme (setting [1]) were 250 nM, 110 nM and 8.7 nM, respectively.

On to `Cc1cc(Oc2c(F)cccc2F)ncc1-n1ncc(C(=O)c2cc3cc(F)c(N4CCOCC4)cc3[nH]2)c1N` [Example 5-1-100, [5-amino-1-[6-(2,6-difluorophenoxy)-4-methylpyridin-3-yl]pyrazol-4-yl]-(5-fluoro-6-morpholin-4-yl-1H-indol-2-yl)methanone], for which the figures for the IC50 on human Src enzyme, at human Lck enzyme and at human Yes1 enzyme were 8.7 nM, 1.3 nM and 1.6 nM, respectively.
